Test results reported in ChEMBL document CHEMBL1152061, “New cytostatic agents obtained by molecular topology” (Bioorg Med Chem Lett, 1996).

What was measured:
HepG2 [1] = assay: Compound was evaluated for the inhibition of cell proliferation of human hepatocellular carcinoma, HepG2 (ATCC HB8065).; assay type: functional, cell-based
HepG2 [2] = assay: Compound was evaluated for the cytotoxicity against human hepatocellular carcinoma, HepG2 (ATCC HB8065); assay type: functional
HeLa [3] = assay: Compound was evaluated for the cytotoxicity against human cervix epithelioid carcinoma, HeLa (ATCC CCL2).; assay type: functional
HeLa [4] = assay: Compound was evaluated for the inhibition of cell proliferation of human cervix epithelioid carcinoma, HeLa (ATCC CCL2).; assay type: functional, cell-based
[5] = Compound was evaluated for the inhibition of cell proliferation of human ocular lens epithelium (CECH).; assay type: functional, tissue-based; details: Lens of camera-type eye
[6] = Compound was evaluated for the cytotoxicity against human ocular lens epithelium (CECH).; assay type: functional, Lens of camera-type eye
[7] = Cytotoxicity ratio for Human hepatocellular carcinoma, HepG2 (ATCC HB 8065) cells; assay type: functional
HeLa [8] = assay: Compound was evaluated for the cytotoxicity against human cervix epithelioid carcinoma, HeLa (ATCC CCL2); assay type: functional

In the case of `CCn1cc(C(=O)O)c(=O)c2cnc(N3CCCC3)nc21` [PIROMIDIC ACID], the IC50 (HepG2 [1]) is reported as 110 µM, the MNTC (HepG2 [2]) is reported as 120 µM and the MNTC (HeLa [3]) is reported as 100 µM. The IC50 (HeLa [4]) was 97 µM, the IC50 [5] was 184 µM and the MNTC [6] was 250 µM. It also gave a Ratio [7] of 1.67.

In the case of `Cc1c(C(=O)O)c(O)cc2c1C(=O)c1c(O)c([C@@H]3O[C@H](CO)[C@@H](O)[C@H](O)[C@H]3O)c(O)c(O)c1C2=O` [CARMINIC ACID], the IC50 (HepG2 [1]) is reported as 1770 µM, the MNTC (HepG2 [2]) is reported as 2500 µM and the MNTC (HeLa [3]) is reported as greater than 5000 µM. For the same compound, the IC50 (HeLa [4]) was 3730 µM, the IC50 [5] was 1650 µM and the MNTC [6] was 2200 µM. For the same compound, the Ratio [7] was 0.93.

In the case of `CNC(C)C1CCC(N)C(OC2C(N)CC(N)C(OC3OCC(C)(O)C(NC)C3O)C2O)O1.CNC1C(O)C(OC2C(N)CC(N)C(OC3OC(C(C)N)CCC3N)C2O)OCC1(C)O.CNC1C(O)C(OC2C(N)CC(N)C(OC3OC(CN)CCC3N)C2O)OCC1(C)O.O=S(=O)(O)O` (stereo unspecified) [GENTAMICIN MIXTURE], the MNTC (HepG2 [2]) is reported as 210 µM, the MNTC (HeLa [3]) is reported as greater than 1050 µM and the MNTC [6] is reported as 210 µM.

Compound `CCC[C@@H]1C[C@@H](C(=O)N[C@@H]([C@H]2O[C@H](SC)[C@H](O)[C@@H](O)[C@H]2O)[C@H](C)Cl)N(C)C1` [CLINDAMYCIN] has an MNTC (HepG2 [2]) greater than 5000 µM, an MNTC (HeLa [8]) of 1000 µM and an MNTC [6] of 1000 µM.

`CN(C)[C@@H]1C(O)=C(C(N)=O)C(=O)[C@@]2(O)C(O)=C3C(=O)c4c(O)cccc4[C@@](C)(O)[C@H]3C[C@@H]12` [TETRACYCLINE] showed an IC50 (HepG2 [1]) of 128 µM, an IC50 (HeLa [4]) of 51 µM and an IC50 [5] of 207 µM. For the same compound, the Ratio [7] was 1.62.

`C[C@H]1c2cccc(O)c2C(=O)C2=C(O)[C@]3(O)C(=O)C(C(N)=O)=C(O)[C@@H](N(C)C)[C@@H]3[C@@H](O)[C@@H]21.O` [DOXYCYCLINE] gave an IC50 (HepG2 [1]) of 53 µM, an MNTC (HepG2 [2]) of 60 µM and an MNTC (HeLa [3]) of 40 µM. For the same compound, the IC50 (HeLa [4]) was 30 µM, the IC50 [5] was 35 µM and the MNTC [6] was 60 µM. The Ratio [7] was 0.66.

In the case of `O=c1[nH]cc(F)c(=O)[nH]1` [FLUOROURACIL], the IC50 (HepG2 [1]) is reported as 85 µM, the MNTC (HepG2 [2]) is reported as 100 µM and the MNTC (HeLa [3]) is reported as 40 µM. It also gave an IC50 [5] of 8 µM and a Ratio [7] of 0.09.

Work on `CO[C@@]12[C@H](COC(N)=O)C3=C(C(=O)C(C)=C(N)C3=O)N1C[C@@H]1N[C@@H]12` [MITOMYCIN] yielded an IC50 (HepG2 [1]) of 0.27 µM, an MNTC (HepG2 [2]) of 0.7 µM and an MNTC (HeLa [3]) of 2 µM. The IC50 [5] was 0.09 µM and the Ratio [7] was 0.33.
